Laboratory results: patent US11000056B2, “Bioactive serum fraction from achachairu (Garcinia humilis) which is free of benzophenone and proteins” (ISP Investments LLC, priority 2015, dated 2021)

Columns and labels:
IL-18 = assay: IL18/Baseline, skin sensitization potential in HEK; format: cell-based, human; conditions: HEK cultures, positive control
Protocol: It is possible for a test article to not be cytotoxic, and yet be unsafe due to provoking an allergic reaction upon skin contact. Typically, initial exposure to an allergen sensitizes the immune system, and following exposures cause an allergic response. […] We therefore evaluated IL-18 production in HEK treated with test articles to determine their sensitization potential.
Normal human adult epidermal keratinocytes (HEK) were cultured as described in Example 6 above. […] The cell lysates were collected, and IL-18 was quantified using Human IL-18 ELISA Kit (Catalog #7620, produced by MBL International Co., Woburn, Mass., USA). […] Fold changes of IL-18 levels between test articles and respective vehicle controls were calculated and compared to pPD (positive control). […]

[1] = laboratory animals; cited from earlier work
[2] = tested on: endocrine (androgenic/estrogenic) activity; conditions: cited from earlier work
[3] = oral and dermal routes; cited from earlier work

SMILES | IL-18 induction compared to vehicle control (in words) (IL-18) | Hormonal activity (in words) [1] | Anti-estrogenic activity (in words) [2] | Anti-androgenic activity (in words) ([2]; receptor binding assay) | Estrogenic activity (in words) ([2]; receptor binding assay) | Absorption (in words) [3]
Nc1ccc(N)cc1 [benchmark sensitizer, para-phenylenediamine] | significantly induced IL-18 |  |  |  |  | 
COc1ccc(C(=O)c2ccccc2)c(O)c1 [BP-3, Benzophenone-3] |  | weak hormonal activity | anti-estrogenic activity | strong anti-androgenic | weak estrogenic | rapidly absorbed via oral and dermal routes
